For the assay, the target named is T1, STING (Homo sapiens, UniProt Q86WV6, G230A/H232R/R293Q/R71H).
T1 construct: host or cells: THP1-Dual cells (human THP-1 monocyte line with Lucia/SEAP reporters)
T1 sequence (Q86WV6 whole entry R71H/G230A/H232R/R293Q): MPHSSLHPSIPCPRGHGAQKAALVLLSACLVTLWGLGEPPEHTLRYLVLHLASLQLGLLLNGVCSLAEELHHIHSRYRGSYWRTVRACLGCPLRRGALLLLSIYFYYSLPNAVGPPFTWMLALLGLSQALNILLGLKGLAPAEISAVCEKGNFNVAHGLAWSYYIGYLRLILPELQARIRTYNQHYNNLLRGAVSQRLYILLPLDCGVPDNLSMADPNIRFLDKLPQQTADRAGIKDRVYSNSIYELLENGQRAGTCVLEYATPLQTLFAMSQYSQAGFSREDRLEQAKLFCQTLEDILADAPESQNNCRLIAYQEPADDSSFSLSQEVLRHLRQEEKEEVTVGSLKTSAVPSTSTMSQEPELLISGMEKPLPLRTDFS
Put plainly: Reporter gene expression assay in THP1-Dual cells (IRF pathway Lucia luciferase, 2',3'-cGAMP stimulation). The note with it: 10 min preincubation, 5 μM 2',3'-cGAMP, 20 hr, IRF reporter QUANTI-Luc, read-out: THP-1 (HAQ) Activity. The class given is cell-based. The essentials:
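THP1-Dual cells preincubated 10 min with compound, then stimulated with 5 μM 2′,3′-cGAMP for 20 hr. Secreted Lucia luciferase (IRF reporter) measured in supernatant by luminescence; IC50 reported as ranges (A ≤1 μM, B >1–≤10 μM, C >10 μM).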
A general note: In a reporter assay the amount or activity of a reporter protein is the signal.
For `O=C(Nc1ccc2c(c1)OCC(=O)N2Cc1cccnc1)Nc1ccc2cc[nH]c2c1` [Example 148, 1-(1H-indol-6-yl)-3-(3-oxo-4-(pyridin-3-ylmethyl)-3,4-dihydro-2H-benzo [b][1, 4]oxazin-7-yl)urea], the IC50 lay within 1 to 10 µM.
As to `O=C(Nc1ccc2c(c1)OCC(=O)N2Cc1ccccn1)Nc1ccc2cc[nH]c2c1` [Example 149, 1-(iH-indol-6-yl)-3-(3-oxo-4-(pyridin-2-ylmethyl)-3,4-dihydro-2H-benzo[b][1, 4]oxazin-7-yl)urea], the IC50 is 1 to 10 µM.
The same measure for `O=C(Nc1ccc2c(c1)OCC(=O)N2CC1CCOC1)Nc1ccc2cc[nH]c2c1` (centres unmarked) [Example 150, 1-(1H-indol-6-yl)-3-(3-oxo-4-((tetrahydrofuran-3-yl)methyl)-3,4-dihydro-2H-benzo [b][1, 4]oxazin-7-yl)urea]: 1 to 10 µM; for `O=C(Nc1ccc2c(c1)OCC(=O)N2Cc1nnco1)Nc1ccc2cc[nH]c2c1` [Example 151, 1-(4-((1,3,4′-oxadiazol-2-yl)methyl)-3-oxo-3,4-dihydro-2H-benzo[b][1, 4]oxazin-7-yl)-3-(1H-indol-6-yl)urea]: more than 10 µM.
On to `O=C(Nc1ccc2c(c1)OCC(=O)N2Cc1cccc(O)c1)Nc1ccc2cc[nH]c2c1` [Example 152, 1-(4-(3-hydroxybenzyl)-3-oxo-3,4-dihydro-2H-benzo[b][1, 4]oxazin-7-yl)-3-(1H-indol-6-yl)urea], for which the IC50 was in the range of 1 to 10 µM.
In the case of `O=C(Nc1ccc2c(c1)OCC(=O)N2Cc1ccc(CO)cc1)Nc1ccc2cc[nH]c2c1` [Example 153, 1-(4-(4-(hydroxymethyl)benzyl)-3-oxo-3,4-dihydro-2H-benzo[b][1, 4]oxazin-7-yl)-3-(1H-indol-6-yl)urea] it was more than 10 µM.
The same measure for `O=C(Nc1ccc2c(c1)OCC(=O)N2Cc1cnccn1)Nc1ccc2cc[nH]c2c1` [Example 154, 1-(1H-indol-6-yl)-3-(3-oxo-4-(pyrazin-2-ylmethyl)-3,4-dihydro-2H-benzo[b][i, 4]oxazin-7-yl)urea]: more than 10 µM; for `NC(=O)c1cccc(CN2C(=O)COc3cc(NC(=O)Nc4ccc5cc[nH]c5c4)ccc32)c1` [Example 155, 3-((7-(3-(1H-indol-6-yl)ureido)-3-oxo-2,3-dihydro-4H-benzo[b][1, 4]oxazin-4-yl)methyl) benzamide]: more than 10 µM; for `O=C(Nc1ccc2c(c1)OCC(=O)N2Cc1cccc(CO)c1)Nc1ccc2cc[nH]c2c1` [Example 156, 1-(4-(3-(hydroxymethyl)benzyl)-3-oxo-3,4-dihydro-2H-benzo[b][1, 4]oxazin-7-yl)-3-(1H-indol-6-yl)urea]: 1 to 10 µM.
In the case of `N#CCN1C(=O)COc2cc(NC(=O)Nc3ccc4cc[nH]c4c3)ccc21` [Example 157, 1-(4-(cyanomethyl)-3-oxo-3,4-dihydro-2H-benzo[b][1, 4]oxazin-7-yl)-3-(1H-indol-6-yl)urea] it was 1 to 10 µM; in that of `O=C(Nc1ccc2c(c1)OCC(=O)N2Cc1ccc[nH]c1=O)Nc1ccc2cc[nH]c2c1` [Example 158, 1-(1H-indol-6-yl)-3-(3-oxo-4-((2-oxo-1,2-dihydropyridin-3-yl)methyl)-3,4-dihydro-2H-benzo[b][1, 4]oxazin-7-yl)urea], more than 10 µM; in that of `O=C(Nc1ccc2c(c1)OCC(=O)N2Cc1ccccc1O)Nc1ccc2cc[nH]c2c1` [Example 159, 1-(4-(2-hydroxybenzyl)-3-oxo-3,4-dihydro-2H-benzo [b][1, 4]oxazin-7-yl)-3-(1H-indol-6-yl)urea], 1 to 10 µM.
`O=C(Nc1ccc2c(c1)OCC(=O)N2Cc1ccncn1)Nc1ccc2cc[nH]c2c1` [Example 160, 1-(1H-indol-6-yl)-3-(3-oxo-4-(pyrimidin-4-ylmethyl)-3,4-dihydro-2H-benzo[b][1, 4]oxazin-7-yl)urea]: the IC50 lay within 1 to 10 µM.
In the case of `O=C(Nc1ccc2c(c1)OCC(=O)N2Cc1ccn[nH]1)Nc1ccc2cc[nH]c2c1` [Example 161, 1-(4-((1H-pyrazol-5-yl)methyl)-3-oxo-3,4-dihydro-2H-benzo[b][1, 4]oxazin-7-yl)-3-(1H-indol-6-yl)urea] it was more than 10 µM; in that of `O=C(Nc1ccc2c(c1)OCC(=O)N2Cc1cnc[nH]1)Nc1ccc2cc[nH]c2c1` [Example 162, 1-(4-((1H-imidazol-5-yl)methyl)-3-oxo-3,4-dihydro-2H-benzo[b][1, 4]oxazin-7-yl)-3-(1H-indol-6-yl)urea], more than 10 µM; in that of `O=C(Nc1ccc2c(c1)OCC(=O)N2Cc1ncno1)Nc1ccc2cc[nH]c2c1` [Example 163, 1-(4-((1,2,4-oxadiazol-5-yl)methyl)-3-oxo-3,4-dihydro-2H-benzo[b][1,4]oxazin-7-yl)-3-(1H-indol-6-yl)urea], more than 10 µM.
Turning to `O=C(Nc1ccc2c(c1)OCC(=O)N2Cc1ccon1)Nc1ccc2cc[nH]c2c1` [Example 164, 1-(1H-indol-6-yl)-3-(4-(isoxazol-3-ylmethyl)-3-oxo-3,4-dihydro-2H-benzo[b][1, 4]oxazin-7-yl)urea], the IC50 was in the range of 1 to 10 µM.
As to `NC(=O)c1cc2c(cc1NC(=O)Nc1ccc3cc[nH]c3c1)OCC(=O)N2Cc1ccccc1` [Example 165, 7-(3-(H-indol-6-yl)ureido)-4-benzyl-3-oxo-3,4-dihydro-2H-benzo[b][1, 4]oxazine-6-carboxamide], the IC50 is 1 to 10 µM.
As to `O=C(Nc1ccc2cc[nH]c2c1)Nc1cc2c(cc1Br)N(Cc1ccccc1)C(=O)CO2` [Example 166, 1-(4-benzyl-6-bromo-3-oxo-3,4-dihydro-2H-benzo[b][1, 4]oxazin-7-yl)-3-(1H-indol-6-yl)urea], the IC50 was 1 to 10 µM.
As for `O=C(Nc1ccc2c(c1)N(Cc1ccccc1)CC[S+]2[O-])Nc1ccc2cc[nH]c2c1` (centres unmarked) [Example 167, 1-(4-benzyl-1-oxido-3,4-dihydro-2H-benzo[b][1, 4]thiazin-6-yl)-3-(1H-indol-6-yl)urea], the IC50 was more than 10 µM.
With `CN1CCSc2ccc(NC(=O)Nc3ccc4cc[nH]c4c3)cc21` [Example 168, 1-(1H-indol-6-yl)-3-(4-methyl-3,4-dihydro-2H-benzo[b][1, 4]thiazin-6-yl)urea], the IC50 was more than 10 µM.
On to `O=C(Nc1ccc2c(c1)N(Cc1c(F)cccc1Cl)CCO2)Nc1ccc2cc[nH]c2c1` [Example 169, 1-(4-(2-chloro-6-fluorobenzyl)-3,4-dihydro-2H-benzo[b][1, 4]oxazin-6-yl)-3-(1H-indol-6-yl)urea], for which the IC50 was not above 1 µM.
Turning to `O=C(Nc1ccc2c(c1)OCCN2Cc1c(F)cccc1Cl)Nc1ccc2cc[nH]c2c1` [Example 170, 1-(4-(2-chloro-6-fluorobenzyl)-3,4-dihydro-2H-benzo[b][1, 4]oxazin-7-yl)-3-(1H-indol-6-yl)urea], the IC50 lay within 1 to 10 µM.
In the case of `O=C(Nc1ccc2c(c1)SCCN2Cc1c(F)cccc1Cl)Nc1ccc2cc[nH]c2c1` [Example 171, 1-(4-(2-chloro-6-fluorobenzyl)-3,4-dihydro-2H-benzo[b][1, 4]thiazin-7-yl)-3-(1H-indol-6-yl)urea] it was not above 1 µM; in that of `O=C(Nc1ccc2c(c1)N(Cc1ccccc1)CCO2)Nc1ccc2cc[nH]c2n1` [Example 172, 1-(4-benzyl-3,4-dihydro-2H-benzo[b][1, 4]oxazin-6-yl)-3-(1H-pyrrolo[2,3-b]pyridin-6-yl)urea], 1 to 10 µM.
The same measure for `O=C(Nc1ccc(F)cc1)Nc1ccc2c(c1)N(Cc1ccccc1)CCS2` [Example 173, 1-(4-benzyl-3,4-dihydro-2H-benzo[b][1, 4]thiazin-6-yl)-3-(4-fluorophenyl) urea]: 1 to 10 µM.

The values are drawn from patent US20230124361A1, “SMALL MOLECULE STING ANTAGONISTS” (CURADEV PHARMA PVT. LTD., priority 2020, published 2023).
